Results taken from PMC10060354, “Discovery of a small molecule ligand of FRS2 that inhibits invasion and tumor growth” (Cellular Oncology, 2022).
Like-named read-outs stand apart in the source and are kept apart here. Blank lines part the entries; values can stand above or below the molecule they belong to. Ends that are not written are not given here.

Legend:
DMS114 = assay: Boyden chamber transwell migration assay; format: cell-based, human; conditions: 24 h
Description: Transwells with 5 μm pore size (83.3932.500; Sarstedt) were coated with 50 µl of 0.06 μg/μl Pure Col Collagen I (5005; Advanced BioMatrix) dissolved in 100% EtOH for a final concentration of 10 μg/cm^2. 10,000 – 15,000 cells were resuspended in serum-free medium or serum-free medium containing the appropriate treatment and seeded in the upper chamber of a 24 well plate containing the coated transwell. The lower chamber was filled with either serum-free medium or serum-free medium with bFGF (25 ng/ml). Transwell migration was allowed for 24 h (DMS114) or 48 h (HCT116) at 37 °C, 5% CO2. Inserts were washed twice with PBS and the remaining non-invading cells on the upper surface of the membrane were removed using a cotton swab. The cells were fixed in 4% paraformaldehyde (28908; Thermo Fisher Scientific) in PBS for 5 min at RT. Fixed cells were washed twice with PBS and stained with DAPI for 15 min at RT. Inserts were washed three times in PBS before images of DAPI-stained nuclei were acquired using a widefield Nikon Ti2 microscope at 40 × magnification. Nuclei were counted on the membrane areas using ImageJ software and plotted on Prism 9 software (GraphPad).

ERK (pT202/Y204) = assay: Immunoblotting, ERK phosphorylation; format: cell-based, human; conditions: DAOY, SW780, M059K, SKOV3, AGS, DMS114 and RT-112 cells; 10 µM compound or 1 µM BGJ398
Description: (§1) Cells were serum starved o.n. and 10 µM compound or 1 µM (BGJ398) were added 3 h before stimulation with 100 ng/ml bFGF for 15 min. Cells were lysed in RIPA buffer containing protease inhibitor cocktail and lysates resolved by SDS-PAGE. Membranes were probed with primary antibodies against phospho-FRS2, FRS2, phospho-ERK1/2, ERK1/2, pAKT, AKT and tubulin. Integrated density of immuno-reactive bands was quantified using Adobe Photoshop CS3. Integrated densities of phospho bands relative to non-phospho bands of same protein were calculated and plotted as fold-change relative to untreated control conditions. Compounds and BGJ398 were added in DMSO and corresponding DMSO concentrations were used in control samples.

[1] = system: FRS2 (Y436) phosphorylation; assay: Immunoblotting, FRS2 phosphorylation; format: cell-based, human; conditions: RT-112 cells
Description: as §1

human cancer cell lines = assay: CellTiter-Glo viability (2D culture or 3D spheroids), cell line panel; format: cell-based; conditions: SW780, RT-112, M059K and SKOV3 cells; 2.7 to 20 µM; 48 h
Description: Cell viability was determined using CellTiter-Glo® 2D or 3D cell viability assays (#G9242, #G9682, Promega). 500 cells/25 µl were seeded in flat bottom (#781,091, Greiner bio-one) or U-low adhesion (#4516, Corning) 384-well plate, 24 h prior to treatment. Increasing concentrations of compounds are deposited on cells using a HP Digital Drug Dispenser with DMSO total volume normalization. After 48 h, the CellTiter-Glo® 2D or 3D reagent was added (volume/volume) following manufacturer’s instructions. Plates were incubated at RT (room temperature) under agitation for 30 min and luminescence representing the number of viable cells was quantified with a Cytation 3 imaging reader (BioTek®). Experiments were performed independently three times with three technical replicas each.

pFRS2Y436 = assay: IHC of pFRS2Y436 in SKOV3 flank tumor samples; format: in vivo, mice; conditions: SKOV3 model; end of treatment
Description: IHC of tumor sections was performed by Sophistolab (Muttenz, Switzerland) on a Lecia BondMax instrument using Refine HRP-Kits (Leica DS9800). All buffer-solutions were purchased from Lecia Microsystems Newcastle, Ltd and used according to the manufacturer’s guidelines. Paraffin-slides were de-waxed, pre-treated and incubated as follows: ER-solution 2 for 10 min at 95 °C, ER-solution 2 for 20 min at 100 °C and ER-solution 2 for 30 min at 100 °C. pFRS2; Rabbit anti-Phospho FRS2 (PhosphoY 436, Abcam Limited; ab193363), dilution 1:150; phospho-p44/42 MAPK (Erk1/2Thr202/Tyr204) Rabbit mAb (Cell Signaling Technology #4370), dilution 1:1600. The IHC images were captured digitally using a Nikon Epifluorescence Eclipse Ti2 equipped with a Nikon DS-Ri2 color and a Nikon DS-Qi2 monochrome camera.

DAOY cells = assay: Spheroid invasion assay (SIA), bFGF-induced collagen I invasion; format: cell-based, human; conditions: DAOY cells, n = 3 technical replicas, read-out: EC50 for the inhibition of bFGF-induced collagen I invasion
Summary of the method: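 Spheroids formed over 24–72 h were embedded in collagen I (final 1.75 mg/ml) and stimulated with bFGF (100 ng/ml unless stated), HGF 30 ng/ml or EGF 20 ng/ml with compound in DMSO. Invasion distance was quantified 24–48 h after embedding.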

GB1-FRS2-PTB = target: T1, GB1-FRS2-PTB (Homo sapiens, UniProt Q8WU20); assay: nanoDSF with GB1-fused PTB domain; format: binding
T1 construct: FRS2-PTB 11-140aa; 6xHis (N); made in house; host or cells: E. coli BL21 (DE3)
T1 sequence (Q8WU20 11-140): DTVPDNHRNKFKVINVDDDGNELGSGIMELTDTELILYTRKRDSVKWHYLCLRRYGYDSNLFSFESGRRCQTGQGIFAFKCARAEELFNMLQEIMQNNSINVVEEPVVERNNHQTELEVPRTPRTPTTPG
Description: Assay establishment and pilot nanoDSF experiments were performed with a Tycho® system. Each experiment was performed by mixing the protein and ligand of interest at a 1:1 ratio and subsequent incubation for 15–30 min at room temperature. Controls of protein alone and ligand alone in identical buffer compositions as for the complex were measured accordingly. The temperature gradient ranged from 35 to 95 °C, and the heating rate was 30 °C/min. Inflection temperatures TI were calculated from the first derivative of the spectra obtained at the ratio of the signals at 350 nm to those at 330 nm. ΔTI of a complex was calculated as following: ΔTI,complex = TI,complex – TI,protein. […]
Purified FRS2_PTB or GB1_FRS2_PTB protein tagged with 6 × Histidine residues and the B1 immunoglobulin binding domain of the streptococcal protein G (GB1) were diluted in the protein buffer (100 mM sodium phosphate, 50 mM NaCl, 0.5 mM EDTA, 50 mM arginine, 1 mM TCEP, pH 7.0) to 30 μM, GB-1 to 40 μM. […] Each compound was measured in triplicates. Protein controls were measured in six replicates in the beginning. The quality of the screen was assessed by the Z-factor. nanoDSF validation studies were performed on a Prometheus® system in high sensitivity capillaries. […] Each compound was measured in triplicates. […] FGFR_PEP was measured against both GB1-FRS2_PTB and GB1, all other compounds only against GB1-FRS2_PTB. […]

FRS2_PTB = target: T2, FRS2_PTB (Homo sapiens, UniProt Q8WU20); assay: nano differential scanning fluorimetry (nanoDSF); format: binding; conditions: 500 μM ligand
T2 construct: FRS2-PTB 11-140aa; 6xHis; made in house; host or cells: E. coli BL21 (DE3)
T2 sequence (Q8WU20 11-140): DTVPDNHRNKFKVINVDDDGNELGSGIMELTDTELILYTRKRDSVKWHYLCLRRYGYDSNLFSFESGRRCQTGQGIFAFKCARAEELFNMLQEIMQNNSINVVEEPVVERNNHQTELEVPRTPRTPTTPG
Description: Assay establishment and pilot nanoDSF experiments were performed with a Tycho® system. Each experiment was performed by mixing the protein and ligand of interest at a 1:1 ratio and subsequent incubation for 15–30 min at room temperature. Controls of protein alone and ligand alone in identical buffer compositions as for the complex were measured accordingly. The temperature gradient ranged from 35 to 95 °C, and the heating rate was 30 °C/min. Inflection temperatures TI were calculated from the first derivative of the spectra obtained at the ratio of the signals at 350 nm to those at 330 nm. ΔTI of a complex was calculated as following: ΔTI,complex = TI,complex – TI,protein.
The in-built software version 1.1.5.668 (NanoTemper Technologies, Munich, Germany) and Microsoft Office Excel 365 (Microsoft Corp., Seattle, USA) was used for data analysis. Data was plotted with GraphPad Prism vers. 8.3.0 (GraphPad Software, San Diego, USA).
Purified FRS2_PTB or GB1_FRS2_PTB protein tagged with 6 × Histidine residues and the B1 immunoglobulin binding domain of the streptococcal protein G (GB1) were diluted in the protein buffer (100 mM sodium phosphate, 50 mM NaCl, 0.5 mM EDTA, 50 mM arginine, 1 mM TCEP, pH 7.0) to 30 μM, GB-1 to 40 μM. FGFR_PEP, compounds or paracetamol (PARA) as negative control were dissolved at 1 mM in the protein buffer supplemented with 10% DMSO. Compound and protein were mixed at 1:1 volume ratio yielding a final concentration of 15 μM and 20 μM for FRS2_PTB/GB1_FRS2_PTB and GB1, respectively, as well as 500 μM for FGFR_PEP or compounds. The mixture was incubated for 15 min. Each compound was measured in triplicates. Protein controls were measured in six replicates in the beginning. The quality of the screen was assessed by the Z-factor. nanoDSF validation studies were performed on a Prometheus® system in high sensitivity capillaries. Samples were heated with 1 °C/min from 20 to 95 °C. Each compound was measured in triplicates. GB1-FRS2_PTB and GB1 were diluted in the protein buffer (100 mM sodium phosphate, 50 mM NaCl, 0.5 mM EDTA, 50 mM arginine, 1 mM TCEP, pH 7.0) to 30 μM. Compounds 3.3, 3.4, 3.18 as well as the 3.18 analogues were dissolved in 100% DMSO at 50 or 100 mM and further diluted to 1 mM with a final DMSO-concentration of 100%. FGFR_PEP was dissolved at 1 mM in the protein buffer supplemented with 10% DMSO. Compound and protein were mixed at 1:1 volume ratio yielding final concentrations of 15 μM protein and 500 μM for the compounds. FGFR_PEP was measured against both GB1-FRS2_PTB and GB1, all other compounds only against GB1-FRS2_PTB. The mixture was incubated for 15 min before measurement. The data was analyzed for both the ratio of signals at 330 and 350 nm and at 350 nm alone. […]

GB1-FRS2_PTB [2] = target: T3, GB1-FRS2_PTB (human, UniProt Q8WU20 15-135, 2nd Generation BLUE-NHS dye (in the MST only)); assay: MST; GB1-FRS2_PTB labelled with BLUE-NHS dye at 25 nM; FGFR_PEP in 1:1 serial dilution from 1 mM to 61.04 nM; 25 C; 100 mM sodium phosphate, 50 mM NaCl, 0.5 mM EDTA, 50 mM arginine, 1 mM TCEP, pH 7.0, with and without DMSO; MST trace analysis; conditions: both partners purified
T3 construct: Fibroblast growth factor receptor substrate 2 (FRS2), human, PTB domain, residues 15 to 135; Vector pEM3BT2; also called GB1-fused PTB domain; source: E. coli BL21 (DE3), purified (Ni-NTA); not shown: His6, N-terminal, kept
T3 sequence (looked up): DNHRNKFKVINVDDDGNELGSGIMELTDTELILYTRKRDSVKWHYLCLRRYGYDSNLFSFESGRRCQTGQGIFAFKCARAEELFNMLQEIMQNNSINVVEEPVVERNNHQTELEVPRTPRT

GB1-FRS2_PTB [3] = target: T3, GB1-FRS2_PTB; assay: nanoDSF (thermal shift); 15 uM protein mixed with 500 uM FGFR_PEP, incubated 15 min; 100 mM sodium phosphate, 50 mM NaCl, 0.5 mM EDTA, 50 mM arginine, 1 mM TCEP, pH 7.0, with DMSO; shift of the inflection or melting temperature against protein alone; conditions: both partners purified
[4] = target: T4, FRS2_PTB (PTB domain of human FRS2) (human, UniProt Q8WU20 15-135); assay: as above; conditions: both partners purified
T4 construct: Fibroblast growth factor receptor substrate 2 (FRS2), human, PTB domain, residues 15 to 135 as the methods state for the PTB domain constructs; The limits 15-135 are stated in the methods sentence that describes the GB1 fusions; also called FRS2-PTB domain; PTB domain of FRS2; source: E. coli BL21 (DE3), purified (Ni-NTA)
T4 sequence (looked up): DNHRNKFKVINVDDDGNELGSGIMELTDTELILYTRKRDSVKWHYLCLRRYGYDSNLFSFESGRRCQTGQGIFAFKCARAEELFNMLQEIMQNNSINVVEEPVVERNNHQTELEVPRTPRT

Molecule: CCN1CCN(c2ccc(Nc3cc(N(C)C(=O)Nc4c(Cl)c(OC)cc(OC)c4Cl)ncn3)cc2)CC1 [BGJ398, 3-(2,6-Dichloro-3,5-dimethoxy-phenyl)-1-{6-[4-(4-ethyl-piperazin-1-yl)-phenylamino]-pyrimidin-4-yl}-1-methyl-urea, reference compound]
concentration at which significant reduction of transwell migration was observed (DMS114): 1 µM
basal and bFGF-induced phosphorylation of ERK (result in words) (ERK (pT202/Y204)): inhibited basal and bFGF-induced phosphorylation
basal and bFGF-induced phosphorylation of FRS2Y436 (result in words) [1]: reduced basal and bFGF-induced phosphorylation
viability (result in words) (human cancer cell lines): reduced viability
pFRS2 Y436 in tumor tissues by IHC (result in words) (pFRS2Y436): No clear difference in pFRS2 Y436
EC50 (DAOY cells): 470 nM
EC50 (DAOY cells; Homo sapiens, Daoy): 468 nM

nanoDSF shift in the melting temperature (GB1-FRS2-PTB): 10.5 ± 0.1 °C
nanoDSF shift of the inflection point of the melting curve (ΔTm) (FRS2_PTB): 19 ± 0.1 °C
Molecule: HSQMAVHKLAKSIPLRRQVTVS [FGFR peptide, reference compound]

Kd (GB1-FRS2_PTB [2]): 1000 ± 200 nM
Molecule: HSQMAVHKLAKSIPLRRQVTVS (also called FGFR1 peptide) [FGFR peptide (FGFR_PEP)]
shift in the melting temperature (nanoDSF) (GB1-FRS2_PTB [3]): 10.5 ± 0.1 °C
shift of the inflection point of the melting curve (nanoDSF) [4]: 19 ± 0.1 °C
